Laboratory results reported in US9682969B2, “Phthalazinone compounds and methods for the treatment of cystic fibrosis” (FLATLEY DISCOVERY LAB, LLC, priority 2013, dated 2017).

The compounds below were run against human F508del CFTR (Homo sapiens (Human), UniProt P13569, DEL508-508) (assay: CFTR-YFP High Throughput Assay (YFP flux assay, FRT cells)). Details: FRT cells expressing human F508del CFTR and YFP.
Format: cell-based
Description: This protocol is designed to selectively screen small molecule compounds for F508del CFTR corrector activities in the YFP (yellow fluorescent protein) flux assay. In this protocol, the cells are incubated with testing compounds for 24 hours, washed with PBS, stimulated with forskolin and a standard potentiator, and fluorescence in each plate well is measured kinetically read on a 384-well plate reader, such as the Hamamatsu FDSS-6000.
YFP fluorescence intensity values are acquired at high speed before and after iodide buffer is injected to the assay cells. Iodide enters the cells via active CFTR channels in the plasma membrane, and quenches the YFP fluorescence. The rate of fluorescence quenching is proportionate to the total CFTR activity in the cell membrane. F508del CFTR correctors increase the number of CFTR molecules in the testing cell plasma membrane, and thereby accelerate YFP quenching.
This method was initially developed for bench top plate readers (Galietta, J, Jayaraman, S and Verkman, A S. Cell-based assay for high-throughput quantitative screening of CFTR chloride transport agonists. Am. J. Physiol. Cell Physiol. (2001), 281: C173), and was adapted to the HTS format (Sui J, Cotard S, Andersen J, Zhu P, Staunton J, Lee M, Lin S. Optimization of a Yellow fluorescent protein-based iodide influx high-throughput screening assay for cystic fibrosis transmembrane conductance regulator (CFTR) modulators. Assay Drug Dev Technol. (2010), 8: 656-668).
Fisher Rat Thyroid (FRT) cells stably expressing both human F508del CFTR and a halide-sensitive yellow fluorescent protein (YFP-H148Q/I152L 25,22) (Galietta et al. Am. J. Physiol Cell Physiol 281(5), C1734, 2001) were cultured on plastic surface in Coon's modified Ham's F12 medium supplemented with FBS 10%, L-glutamine 2 mM, penicillin 100 U/ml, and streptomycin […]. G418 (0.75-1.0 mg/ml) and zeocin (3.2 ug/ml) were used for selection of FRT cells expressing F508del CFTR and YFP. For primary screening, FRT cells were plated into 384-well black wall, transparent bottom microtiter plates (Costar; Corning Inc.) at a cell density of 20,000-40,000 per well. Test compound was applied to the cells at varying concentrations ranging from 2 nM-40 μM in either a 2-fold or 3-fold dilution series. Cells were incubated in a cell culture incubator at 37° C. with 5% CO2 for 24-26 h. Assay plates were washed with DPBS media (Thermo, cat# SH30028.02) to remove unbound cells and compound. Stimulation media (25 μL) containing 20 μM Forskolin & 30 μM P3 [6-(Ethyl-phenyl-sulfonyl)-4-oxo-1,4-dihydro-quinoline-3-carboxylic acid 2-methoxy-benzylamide] in Hams F-12 coon's modified media was added to the plate wells and incubated at room temperature for 60-120 min. 25 μL of HEPES-PBS-I buffer (10 mM HEPES, 1 mM MgCl2, 3 mM KCl, 1 mM CaCl2, 150 mM NaI) was then added and fluorescence quench curves (Excitation 500 nm/Emission 540 nm; exposure 136 ms) were immediately recorded on an FDSS-6000 plate reader (Hamamatsu). Quench rates were derived from least squares fitting of the data as described by Sui et al (2010).
This protocol is designed to selectively screen small molecule compounds for F508del CFTR potentiator activities in the YFP (yellow fluorescent protein) flux assay. Such compounds act acutely to stimulate CFTR already expressed on the membrane surface. In this protocol, the cells are incubated at 27° C. for 24 hours to homogeneously boost F508del CFTR expression in the cell membrane (low temperature correction), washed with PBS, treated with test compound, and CFTR activity is stimulated with forskolin for 1-2 hr. Measurement of ion flux is initiated by addition of iodide-containing buffer, and YFP quenching is kinetically recorded using a 384-well plate reader, such as the Hamamatsu FDSS-6000.
YFP fluorescence intensity values are acquired at high speed over a 1 min time course before and after iodide buffer is injected to the assay cells. […]

Chain of human F508del CFTR (P13569 other isoform, or with tags, fused parts or gaps del F508-F508): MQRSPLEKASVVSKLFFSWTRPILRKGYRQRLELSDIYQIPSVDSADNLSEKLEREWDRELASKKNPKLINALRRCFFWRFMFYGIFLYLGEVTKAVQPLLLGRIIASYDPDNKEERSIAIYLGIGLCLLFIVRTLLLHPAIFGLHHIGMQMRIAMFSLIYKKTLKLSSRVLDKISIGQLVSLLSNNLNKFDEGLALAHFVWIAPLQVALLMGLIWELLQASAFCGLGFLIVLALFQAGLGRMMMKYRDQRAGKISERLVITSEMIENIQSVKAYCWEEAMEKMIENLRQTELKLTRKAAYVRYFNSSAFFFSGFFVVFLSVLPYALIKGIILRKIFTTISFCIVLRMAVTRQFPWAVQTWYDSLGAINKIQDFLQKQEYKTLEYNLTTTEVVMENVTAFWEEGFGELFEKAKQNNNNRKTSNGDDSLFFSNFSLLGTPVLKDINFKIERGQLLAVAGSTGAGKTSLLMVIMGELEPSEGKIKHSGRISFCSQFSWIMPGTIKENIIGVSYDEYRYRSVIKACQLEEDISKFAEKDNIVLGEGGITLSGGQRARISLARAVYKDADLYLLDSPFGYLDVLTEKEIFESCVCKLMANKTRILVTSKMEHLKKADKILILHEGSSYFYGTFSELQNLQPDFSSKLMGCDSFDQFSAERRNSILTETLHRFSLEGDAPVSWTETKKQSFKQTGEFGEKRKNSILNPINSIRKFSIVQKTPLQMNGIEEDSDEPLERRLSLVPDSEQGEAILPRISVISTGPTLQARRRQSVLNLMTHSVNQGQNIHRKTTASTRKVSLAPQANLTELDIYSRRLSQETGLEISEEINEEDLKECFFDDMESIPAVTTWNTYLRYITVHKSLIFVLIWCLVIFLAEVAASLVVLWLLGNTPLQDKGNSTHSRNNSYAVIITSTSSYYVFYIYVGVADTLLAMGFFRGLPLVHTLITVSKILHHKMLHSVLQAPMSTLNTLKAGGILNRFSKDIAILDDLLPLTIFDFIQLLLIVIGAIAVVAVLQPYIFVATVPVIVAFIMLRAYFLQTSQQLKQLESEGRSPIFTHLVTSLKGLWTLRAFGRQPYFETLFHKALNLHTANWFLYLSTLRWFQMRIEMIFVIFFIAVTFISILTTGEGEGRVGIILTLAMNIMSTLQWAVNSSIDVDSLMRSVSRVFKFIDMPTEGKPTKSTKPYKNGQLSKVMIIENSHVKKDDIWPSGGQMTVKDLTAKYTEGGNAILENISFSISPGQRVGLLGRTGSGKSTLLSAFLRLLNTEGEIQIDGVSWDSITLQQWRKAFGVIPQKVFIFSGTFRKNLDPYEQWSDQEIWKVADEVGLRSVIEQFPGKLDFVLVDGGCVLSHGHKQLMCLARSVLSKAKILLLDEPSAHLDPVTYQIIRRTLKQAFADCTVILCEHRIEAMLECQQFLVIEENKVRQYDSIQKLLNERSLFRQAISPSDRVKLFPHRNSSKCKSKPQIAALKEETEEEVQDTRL

| SMILES | EC50 |
| --- | --- |
| Cc1nc2ccc(N(C)C(=O)Cn3nc(-c4cccc(Cl)c4)c4ccccc4c3=O)cc2o1 [Example 1, 2-(4-(3-chlorophenyl)-1-oxophthalazin-2(1H)-yl)-N-methyl-N-(2-methylbenzo[d]oxazol-6-yl)acetamide] | < 10 µM |
| Cc1nc2ccc(N(C)C(=O)Cn3nc(-c4cccc(F)c4)c4ccccc4c3=O)cc2o1 [Example 2, 2-(4-(3-fluorophenyl)-1-oxophthalazin-2(1H)-yl)-N-methyl-N-(2-methylbenzo[d]oxazol-6-yl)acetamide] | < 10 µM |
| COc1ccc2c(-c3cccc(F)c3)nn(CC(=O)N(C)c3ccc4nc(C)oc4c3)c(=O)c2c1 [Example 3, 2-(4-(3-fluorophenyl)-7-methoxy-1-oxophthalazin-2(1H)-yl)-N-methyl-N-(2-methylbenzo[d]oxazol-6-yl)acetamide] | < 10 µM |
| COc1ccc2c(-c3cccc(Cl)c3)nn(CC(=O)N(C)c3ccc4nc(C)oc4c3)c(=O)c2c1 [Example 4, 2-(4-(3-chlorophenyl)-7-methoxy-1-oxophthalazin-2(1H)-yl)-N-methyl-N-(2-methylbenzo[d]oxazol-6-yl)acetamide] | < 10 µM |
| COc1ccc2c(-c3cccc(Cl)c3)nn(CC(=O)N(c3ccc4nc(C)oc4c3)C3CC3)c(=O)c2c1 [Example 5, 2-(4-(3-chlorophenyl)-7-methoxy-1-oxophthalazin-2(1H)-yl)-N-cyclopropyl-N-(2-methylbenzo[d]oxazol-6-yl)acetamide] | < 10 µM |
| [2H]C([2H])([2H])N(C(=O)Cn1nc(-c2cccc(Cl)c2)c2ccc(OC)cc2c1=O)c1ccc2nc(C)oc2c1 [Example 6, 2-(4-(3-chlorophenyl)-7-methoxy-1-oxophthalazin-2(1H)-yl)-N-(methyl-d3)-N-(2-methylbenzo[d]oxazol-6-yl)acetamide] | < 10 µM |
| [2H]C([2H])(C)N(C(=O)Cn1nc(-c2cccc(Cl)c2)c2ccc(OC)cc2c1=O)c1ccc2nc(C)oc2c1 [Example 7, 2-(4-(3-chlorophenyl)-7-methoxy-1-oxophthalazin-2(1H)-yl)-N-(ethyl-1,1-d2)-N-(2-methylbenzo[d]oxazol-6-yl)acetamide] | < 10 µM |
| CCN(C(=O)Cn1nc(-c2cccc(F)c2)c2ccc(OC)cc2c1=O)c1ccc2nc(C)oc2c1 [Example 8, N-ethyl-2-(4-(3-fluorophenyl)-7-methoxy-1-oxophthalazin-2(1H)-yl)-N-(2-methylbenzo[d]oxazol-6-yl)acetamide] | < 10 µM |
| CCN(C(=O)Cn1nc(-c2cccc(Cl)c2)c2ccc(OC)cc2c1=O)c1ccc2nc(C)oc2c1 [Example 9, 2-(4-(3-chlorophenyl)-7-methoxy-1-oxophthalazin-2(1H)-yl)-N-ethyl-N-(2-methylbenzo[d]oxazol-6-yl)acetamide] | < 10 µM |
| COc1cc2c(=O)n(CC(=O)N(C)c3ccc4nc(C)oc4c3)nc(-c3cccc(F)c3)c2cc1Cl [Example 10, 2-(6-chloro-4-(3-fluorophenyl)-7-methoxy-1-oxophthalazin-2(1H)-yl)-N-methyl-N-(2-methylbenzo[d]oxazol-6-yl)acetamide] | < 10 µM |
| COc1cc2c(=O)n(CC(=O)N(C)c3ccc4nc(C)oc4c3)nc(-c3cccc(Cl)c3)c2cc1Cl [Example 11, 2-(6-chloro-4-(3-chlorophenyl)-7-methoxy-1-oxophthalazin-2(1H)-yl)-N-methyl-N-(2-methylbenzo[d]oxazol-6-yl)acetamide] | < 10 µM |
| COc1ccc2c(-c3cccc(F)c3)nn(CC(=O)N(c3ccc4nc(C)oc4c3)C3CC3)c(=O)c2c1 [Example 12, N-cyclopropyl-2-(4-(3-fluorophenyl)-7-methoxy-1-oxophthalazin-2(1H)-yl)-N-(2-methylbenzo[d]oxazol-6-yl)acetamide] | < 10 µM |
| Cc1nc2ccc(N(C)C(=O)Cn3nc(-c4cccc(F)c4)c4ccc(O)cc4c3=O)cc2o1 [Example 13, 2-(4-(3-fluorophenyl)-7-hydroxy-1-oxophthalazin-2(1H)-yl)-N-methyl-N-(2-methylbenzo[d]oxazol-6-yl)acetamide] | < 10 µM |
| Cc1nc2ccc(N(C(=O)Cn3nc(-c4cccc(F)c4)c4ccc(O)cc4c3=O)C3CC3)cc2o1 [Example 14, N-cyclopropyl-2-(4-(3-fluorophenyl)-7-hydroxy-1-oxophthalazin-2(1H)-yl)-N-(2-methylbenzo[d]oxazol-6-yl)acetamide] | < 10 µM |
| CCOc1ccc2c(-c3cccc(F)c3)nn(CC(=O)N(C)c3ccc4nc(C)oc4c3)c(=O)c2c1 [Example 17, 2-(7-ethoxy-4-(3-fluorophenyl)-1-oxophthalazin-2(1H)-yl)-N-methyl-N-(2-methylbenzo[d]oxazol-6-yl)acetamide] | < 10 µM |
| CCOc1ccc2c(-c3cccc(Cl)c3)nn(CC(=O)N(c3ccc4nc(C)oc4c3)C3CC3)c(=O)c2c1 [Example 18, 2-(4-(3-chlorophenyl)-7-ethoxy-1-oxophthalazin-2(1H)-yl)-N-cyclopropyl-N-(2-methylbenzo[d]oxazol-6-yl)acetamide] | < 10 µM |
| CCOc1ccc2c(-c3cccc(Cl)c3)nn(CC(=O)N(C)c3ccc4nc(C)oc4c3)c(=O)c2c1 [Example 19, 2-(4-(3-chlorophenyl)-7-ethoxy-1-oxophthalazin-2(1H)-yl)-N-methyl-N-(2-methylbenzo[d]oxazol-6-yl)acetamide] | < 10 µM |
| [2H]C([2H])([2H])N(C(=O)Cn1nc(-c2cccc(Cl)c2)c2ccc(OC(C)C)cc2c1=O)c1ccc2nc(C)oc2c1 [Example 20, 2-(4-(3-chlorophenyl)-7-isopropoxy-1-oxophthalazin-2(1H)-yl)-N-(methyl-d3)-N-(2-methylbenzo[d]oxazol-6-yl)acetamide] | < 10 µM |
| CCOc1ccc2c(-c3cccc(F)c3)nn(CC(=O)N(c3ccc4nc(C)oc4c3)C3CC3)c(=O)c2c1 [Example 21, N-cyclopropyl-2-(7-ethoxy-4-(3-fluorophenyl)-1-oxophthalazin-2(1H)-yl)-N-(2-methylbenzo[d]oxazol-6-yl)acetamide] | < 10 µM |
| [2H]C([2H])([2H])N(C(=O)Cn1nc(-c2cccc(F)c2)c2ccc(OCC)cc2c1=O)c1ccc2nc(C)oc2c1 [Example 22, 2-(7-ethoxy-4-(3-fluorophenyl)-1-oxophthalazin-2(1H)-yl)-N-(methyl-d3)-N-(2-methylbenzo[d]oxazol-6-yl)acetamide] | < 10 µM |
| [2H]C([2H])([2H])N(C(=O)Cn1nc(-c2cccc(Cl)c2)c2ccc(OCC3CC3)cc2c1=O)c1ccc2nc(C)oc2c1 [Example 23, 2-(4-(3-chlorophenyl)-7-(cyclopropylmethoxy)-1-oxophthalazin-2(1H)-yl)-N-(methyl-d3)-N-(2-methylbenzo[d]oxazol-6-yl)acetamide] | < 10 µM |
| Cc1nc2ccc(N(C)C(=O)Cn3nc(-c4cccc(Cl)c4)c4ccc(OCC5CC5)cc4c3=O)cc2o1 [Example 24, 2-(4-(3-chlorophenyl)-7-(cyclopropylmethoxy)-1-oxophthalazin-2(1H)-yl)-N-methyl-N-(2-methylbenzo[d]oxazol-6-yl)acetamide] | < 10 µM |
| Cc1nc2ccc(N(C)C(=O)Cn3nc(-c4cccc(Cl)c4)c4ccc(OC(C)C)cc4c3=O)cc2o1 [Example 25, 2-(4-(3-chlorophenyl)-7-isopropoxy-1-oxophthalazin-2(1H)-yl)-N-methyl-N-(2-methylbenzo[d]oxazol-6-yl)acetamide] | < 10 µM |
| Cc1nc2ccc(N(C)C(=O)Cn3nc(-c4cccc(Cl)c4)c4ccc(OC5CCCCC5)cc4c3=O)cc2o1 [Example 26, 2-(4-(3-chlorophenyl)-7-(cyclohexyloxy)-1-oxophthalazin-2(1H)-yl)-N-methyl-N-(2-methylbenzo[d]oxazol-6-yl)acetamide] | < 10 µM |
